# What was measured:
# [1] = target: Mitogen-activated protein kinase 15 (Homo sapiens) (UniProt Q8TD08); assay: Inhibition of wild-type human partial length ERK8 (M1 to P437 residues) expressed in bacterial expression system at 1 uM by Kinomescan method relative to control
# [2] = test system: Mast/stem cell growth factor receptor Kit (Homo sapiens), P10721 [V559D,T670I]; assay: Inhibition of human partial length KIT V559D/T670I double mutant (Y545 to D952 residues) expressed in bacterial expression system at 1 uM by Kinomescan method relative to control
# [3] = target: Dual specificity tyrosine-phosphorylation-regulated kinase 1B (Homo sapiens) (UniProt Q9Y463); assay: Inhibition of wild-type human full length DYRK1B (M1 to S629 residues) expressed in bacterial expression system at 1 uM by Kinomescan method relative to control
# [4] = target: Mitogen-activated protein kinase kinase kinase 11 (Homo sapiens) (UniProt Q16584); assay: Inhibition of wild-type human partial length MLK3 (I77 to W399 residues) expressed in bacterial expression system at 1 uM by Kinomescan method relative to control
# [5] = target: Mitogen-activated protein kinase kinase kinase 13 (Homo sapiens) (UniProt O43283); assay: Inhibition of wild-type human full length LZK (M1 to W966 residues) expressed in mammalian expression system at 1 uM by Kinomescan method relative to control
# [6] = target: Phosphatidylinositol 5-phosphate 4-kinase type-2 beta (Homo sapiens) (UniProt P78356); assay: Inhibition of wild-type human full length PIP5K2B (M1 to T416 residues) expressed in bacterial expression system at 1 uM by Kinomescan method relative to control
# [7] = test system: Phosphatidylinositol 4,5-bisphosphate 3-kinase catalytic subunit alpha isoform (Homo sapiens), P42336 [E542K]; assay: Inhibition of human partial length PIK3CA E542K mutant (R108 to N1068 residues) expressed in mammalian expression system at 1 uM by Kinomescan method relative to control
# [8] = target: MAP kinase-activated protein kinase 2 (Homo sapiens) (UniProt P49137); assay: Inhibition of wild-type human partial length MAPKAPK2 (V48 to D345 residues) expressed in bacterial expression system at 1 uM by Kinomescan method relative to control
# [9] = test system: Epidermal growth factor receptor (Homo sapiens), P00533 [L861Q]; assay: Inhibition of human partial length EGFR L861Q mutant (R669 to V1011 residues) expressed in bacterial expression system at 1 uM by Kinomescan method relative to control
# [10] = target: Dual specificity mitogen-activated protein kinase kinase 6 (Homo sapiens) (UniProt P52564); assay: Inhibition of wild-type human partial length MEK6 (K36 to D334 residues) expressed in bacterial expression system at 1 uM by Kinomescan method relative to control
# [11] = target: Insulin-like growth factor 1 receptor (Homo sapiens) (UniProt P08069); assay: Inhibition of wild-type human partial length IGF1R (L972 to D1294 residues) expressed in bacterial expression system at 1 uM by Kinomescan method relative to control
# [12] = target: Serine/threonine-protein kinase PLK4 (Homo sapiens) (UniProt O00444); assay: Inhibition of wild-type human partial length PLK4 (M1 to S273 residues) expressed in mammalian expression system at 1 uM by Kinomescan method relative to control
# [13] = test system: Receptor-type tyrosine-protein kinase FLT3 (Homo sapiens), P36888 [D835V]; assay: Inhibition of human partial length FLT3 D835V mutant (V592 to Y969 residues) expressed in bacterial expression system at 1 uM by Kinomescan method relative to control
# [14] = target: Dual specificity mitogen-activated protein kinase kinase 2 (Homo sapiens) (UniProt P36507); assay: Inhibition of wild-type human full length MEK2 (M1 to V400 residues) expressed in mammalian expression system at 1 uM by Kinomescan method relative to control
# [15] = target: Serine/threonine-protein kinase pim-2 (Homo sapiens) (UniProt Q9P1W9); assay: Inhibition of wild-type human partial length PIM2 (M1 to E291 residues) expressed in bacterial expression system at 1 uM by Kinomescan method relative to control
# [16] = target: Glycogen synthase kinase-3 alpha (Homo sapiens) (UniProt P49840); assay: Inhibition of wild-type human full length GSK3A (M1 to S483 residues) expressed in bacterial expression system at 1 uM by Kinomescan method relative to control
# [17] = target: Serine/threonine-protein kinase MRCK gamma (Homo sapiens) (UniProt Q6DT37); assay: Inhibition of wild-type human partial length DMPK2 (S46 to S408 residues) expressed in bacterial expression system at 1 uM by Kinomescan method relative to control
# [18] = test system: Epidermal growth factor receptor (Homo sapiens), P00533 [UNDEFINED MUTATION]; assay: Inhibition of human partial length EGFR L747-E749del/A750P mutant expressed in bacterial expression system at 1 uM by Kinomescan method relative to control
# [19] = target: Phosphatidylinositol 4-kinase beta (Homo sapiens) (UniProt Q9UBF8); assay: Inhibition of wild-type human full length PIK4CB (M1 to M828 residues) expressed in mammalian expression system at 10 uM by Kinomescan method relative to control
# [20] = target: Tyrosine-protein kinase FRK (Homo sapiens) (UniProt P42685); assay: Inhibition of wild-type human partial length FRK (A215 to F503 residues) expressed in bacterial expression system at 10 uM by Kinomescan method relative to control
# [21] = target: Serine/threonine-protein kinase D2 (Homo sapiens) (UniProt Q9BZL6); assay: Inhibition of wild-type human partial length PRKD2 (A519 to E838 residues) expressed in bacterial expression system at 10 uM by Kinomescan method relative to control
# [22] = target: Serine/threonine-protein kinase PLK2 (Homo sapiens) (UniProt Q9NYY3); assay: Inhibition of wild-type human partial length PLK2 (H58 to F354 residues) expressed in mammalian expression system at 10 uM by Kinomescan method relative to control
# [23] = test system: ALK tyrosine kinase receptor (Homo sapiens), Q9UM73 [L1196M]; assay: Inhibition of wild-type human partial length ALK L1196M mutant (I1088 to E1409 residues) expressed in mammalian expression system at 10 uM by Kinomescan method relative to control
# [24] = target: Cyclin-dependent kinase 7 (Homo sapiens) (UniProt P50613); assay: Inhibition of wild-type human full length CDK7 (M1 to L344 residues) expressed in mammalian expression system at 10 uM by Kinomescan method relative to control
# [25] = target: Serine/threonine-protein kinase mTOR (Homo sapiens) (UniProt P42345); assay: Inhibition of wild-type human partial length MTOR (L1382 to W2549 residues) expressed in mammalian expression system at 10 uM by Kinomescan method relative to control
# [26] = target: Tyrosine-protein kinase JAK1 (Homo sapiens) (UniProt P23458); assay: Inhibition of wild-type human partial length JAK1 JH2 pseudokinase domain (R537 to D855 residues) expressed in mammalian expression system at 10 uM by Kinomescan method relative to control
# Sequence of Tyrosine-protein kinase JAK1 (Homo sapiens) (P23458 whole entry, the tested form may be a part): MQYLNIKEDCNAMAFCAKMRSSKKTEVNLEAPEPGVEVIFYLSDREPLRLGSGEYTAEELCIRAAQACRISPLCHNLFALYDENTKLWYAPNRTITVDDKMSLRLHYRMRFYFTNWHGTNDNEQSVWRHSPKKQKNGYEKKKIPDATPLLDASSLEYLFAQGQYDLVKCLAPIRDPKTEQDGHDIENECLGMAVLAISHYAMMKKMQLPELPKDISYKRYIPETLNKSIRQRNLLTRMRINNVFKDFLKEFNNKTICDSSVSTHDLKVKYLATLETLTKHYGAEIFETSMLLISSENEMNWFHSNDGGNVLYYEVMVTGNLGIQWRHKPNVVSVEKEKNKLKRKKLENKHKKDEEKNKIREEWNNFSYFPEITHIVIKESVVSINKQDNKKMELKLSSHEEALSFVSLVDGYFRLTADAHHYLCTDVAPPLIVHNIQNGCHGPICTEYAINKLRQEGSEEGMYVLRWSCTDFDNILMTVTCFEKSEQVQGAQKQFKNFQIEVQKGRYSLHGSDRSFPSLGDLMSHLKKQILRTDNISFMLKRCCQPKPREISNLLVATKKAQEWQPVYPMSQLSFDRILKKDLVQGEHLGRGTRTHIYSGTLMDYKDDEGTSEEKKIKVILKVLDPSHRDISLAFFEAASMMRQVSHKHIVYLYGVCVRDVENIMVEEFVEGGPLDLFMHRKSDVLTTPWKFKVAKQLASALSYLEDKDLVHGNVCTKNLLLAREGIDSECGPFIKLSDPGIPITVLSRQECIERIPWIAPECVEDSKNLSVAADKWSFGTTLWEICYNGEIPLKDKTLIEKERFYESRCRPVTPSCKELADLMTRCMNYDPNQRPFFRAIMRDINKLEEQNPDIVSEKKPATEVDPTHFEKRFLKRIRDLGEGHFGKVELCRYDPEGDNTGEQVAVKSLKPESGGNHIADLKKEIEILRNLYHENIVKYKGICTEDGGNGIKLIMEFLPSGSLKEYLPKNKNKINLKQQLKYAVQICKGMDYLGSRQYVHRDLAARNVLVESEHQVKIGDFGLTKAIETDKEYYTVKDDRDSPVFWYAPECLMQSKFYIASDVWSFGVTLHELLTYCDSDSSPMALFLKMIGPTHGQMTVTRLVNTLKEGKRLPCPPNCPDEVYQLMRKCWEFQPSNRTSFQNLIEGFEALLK
# Sequence of Mast/stem cell growth factor receptor Kit (Homo sapiens), P10721 [V559D,T670I] (P10721 whole entry V559D/T670I, the tested form may be a part): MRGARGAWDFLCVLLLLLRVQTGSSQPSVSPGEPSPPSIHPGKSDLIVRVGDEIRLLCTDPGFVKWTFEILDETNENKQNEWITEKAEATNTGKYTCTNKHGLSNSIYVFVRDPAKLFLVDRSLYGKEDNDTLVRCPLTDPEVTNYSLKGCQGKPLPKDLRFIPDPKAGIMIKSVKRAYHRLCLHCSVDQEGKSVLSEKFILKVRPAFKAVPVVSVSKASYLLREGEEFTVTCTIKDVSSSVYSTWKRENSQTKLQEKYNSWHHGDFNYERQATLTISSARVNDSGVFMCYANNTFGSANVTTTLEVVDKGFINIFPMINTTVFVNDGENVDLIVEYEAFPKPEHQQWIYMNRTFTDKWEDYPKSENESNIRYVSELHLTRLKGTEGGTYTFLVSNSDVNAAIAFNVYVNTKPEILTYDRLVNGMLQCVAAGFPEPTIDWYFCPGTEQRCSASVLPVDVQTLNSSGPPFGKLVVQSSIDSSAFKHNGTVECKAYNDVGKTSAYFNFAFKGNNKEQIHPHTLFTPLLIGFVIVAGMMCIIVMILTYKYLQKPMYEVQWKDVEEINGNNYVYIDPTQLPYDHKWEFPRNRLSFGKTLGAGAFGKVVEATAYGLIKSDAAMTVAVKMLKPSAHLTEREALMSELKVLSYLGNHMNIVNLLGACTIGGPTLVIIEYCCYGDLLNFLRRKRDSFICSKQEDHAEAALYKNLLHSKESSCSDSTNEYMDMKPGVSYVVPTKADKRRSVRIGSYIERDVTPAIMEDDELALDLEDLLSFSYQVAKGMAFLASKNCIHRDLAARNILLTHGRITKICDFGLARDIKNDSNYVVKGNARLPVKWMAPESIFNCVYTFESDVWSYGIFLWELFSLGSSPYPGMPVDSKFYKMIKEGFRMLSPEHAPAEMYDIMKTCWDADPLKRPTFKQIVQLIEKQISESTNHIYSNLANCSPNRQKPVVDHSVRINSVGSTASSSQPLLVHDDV
# Sequence of Serine/threonine-protein kinase D2 (Homo sapiens) (Q9BZL6 whole entry, the tested form may be a part): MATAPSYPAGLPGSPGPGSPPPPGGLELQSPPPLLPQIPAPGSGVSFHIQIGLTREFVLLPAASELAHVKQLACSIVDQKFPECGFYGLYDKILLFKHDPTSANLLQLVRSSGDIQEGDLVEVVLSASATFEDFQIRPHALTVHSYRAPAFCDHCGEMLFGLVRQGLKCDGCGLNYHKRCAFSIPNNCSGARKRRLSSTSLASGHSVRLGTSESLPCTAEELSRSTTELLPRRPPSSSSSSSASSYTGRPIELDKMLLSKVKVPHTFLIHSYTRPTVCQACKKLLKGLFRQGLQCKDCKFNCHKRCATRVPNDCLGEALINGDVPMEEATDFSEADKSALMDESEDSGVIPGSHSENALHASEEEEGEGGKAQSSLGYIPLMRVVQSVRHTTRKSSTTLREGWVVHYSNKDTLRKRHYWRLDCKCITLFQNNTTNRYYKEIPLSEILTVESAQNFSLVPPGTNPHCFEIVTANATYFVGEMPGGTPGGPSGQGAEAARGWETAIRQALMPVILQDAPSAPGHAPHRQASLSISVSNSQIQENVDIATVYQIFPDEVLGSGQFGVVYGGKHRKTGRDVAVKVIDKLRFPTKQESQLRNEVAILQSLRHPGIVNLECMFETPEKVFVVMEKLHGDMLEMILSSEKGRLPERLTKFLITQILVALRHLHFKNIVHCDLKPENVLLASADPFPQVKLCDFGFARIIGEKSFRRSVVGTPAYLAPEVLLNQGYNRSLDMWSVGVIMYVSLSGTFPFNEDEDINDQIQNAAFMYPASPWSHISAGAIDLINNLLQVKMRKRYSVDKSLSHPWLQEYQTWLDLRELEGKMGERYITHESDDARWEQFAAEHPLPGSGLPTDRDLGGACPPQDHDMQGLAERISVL
# Sequence of Phosphatidylinositol 5-phosphate 4-kinase type-2 beta (Homo sapiens) (P78356 whole entry, the tested form may be a part, canonical isoform): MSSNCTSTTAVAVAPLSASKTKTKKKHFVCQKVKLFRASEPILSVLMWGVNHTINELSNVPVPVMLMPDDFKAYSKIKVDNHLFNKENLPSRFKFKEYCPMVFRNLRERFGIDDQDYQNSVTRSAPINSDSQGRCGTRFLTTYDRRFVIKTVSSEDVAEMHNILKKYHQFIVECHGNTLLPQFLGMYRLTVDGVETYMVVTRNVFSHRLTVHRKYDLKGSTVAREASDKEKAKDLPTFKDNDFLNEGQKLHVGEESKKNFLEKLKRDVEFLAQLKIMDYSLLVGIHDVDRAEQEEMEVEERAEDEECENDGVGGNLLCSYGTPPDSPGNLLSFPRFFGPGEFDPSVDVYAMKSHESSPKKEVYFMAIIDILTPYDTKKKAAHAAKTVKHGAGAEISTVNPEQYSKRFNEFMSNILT
# Sequence of Serine/threonine-protein kinase MRCK gamma (Homo sapiens) (Q6DT37 whole entry, the tested form may be a part): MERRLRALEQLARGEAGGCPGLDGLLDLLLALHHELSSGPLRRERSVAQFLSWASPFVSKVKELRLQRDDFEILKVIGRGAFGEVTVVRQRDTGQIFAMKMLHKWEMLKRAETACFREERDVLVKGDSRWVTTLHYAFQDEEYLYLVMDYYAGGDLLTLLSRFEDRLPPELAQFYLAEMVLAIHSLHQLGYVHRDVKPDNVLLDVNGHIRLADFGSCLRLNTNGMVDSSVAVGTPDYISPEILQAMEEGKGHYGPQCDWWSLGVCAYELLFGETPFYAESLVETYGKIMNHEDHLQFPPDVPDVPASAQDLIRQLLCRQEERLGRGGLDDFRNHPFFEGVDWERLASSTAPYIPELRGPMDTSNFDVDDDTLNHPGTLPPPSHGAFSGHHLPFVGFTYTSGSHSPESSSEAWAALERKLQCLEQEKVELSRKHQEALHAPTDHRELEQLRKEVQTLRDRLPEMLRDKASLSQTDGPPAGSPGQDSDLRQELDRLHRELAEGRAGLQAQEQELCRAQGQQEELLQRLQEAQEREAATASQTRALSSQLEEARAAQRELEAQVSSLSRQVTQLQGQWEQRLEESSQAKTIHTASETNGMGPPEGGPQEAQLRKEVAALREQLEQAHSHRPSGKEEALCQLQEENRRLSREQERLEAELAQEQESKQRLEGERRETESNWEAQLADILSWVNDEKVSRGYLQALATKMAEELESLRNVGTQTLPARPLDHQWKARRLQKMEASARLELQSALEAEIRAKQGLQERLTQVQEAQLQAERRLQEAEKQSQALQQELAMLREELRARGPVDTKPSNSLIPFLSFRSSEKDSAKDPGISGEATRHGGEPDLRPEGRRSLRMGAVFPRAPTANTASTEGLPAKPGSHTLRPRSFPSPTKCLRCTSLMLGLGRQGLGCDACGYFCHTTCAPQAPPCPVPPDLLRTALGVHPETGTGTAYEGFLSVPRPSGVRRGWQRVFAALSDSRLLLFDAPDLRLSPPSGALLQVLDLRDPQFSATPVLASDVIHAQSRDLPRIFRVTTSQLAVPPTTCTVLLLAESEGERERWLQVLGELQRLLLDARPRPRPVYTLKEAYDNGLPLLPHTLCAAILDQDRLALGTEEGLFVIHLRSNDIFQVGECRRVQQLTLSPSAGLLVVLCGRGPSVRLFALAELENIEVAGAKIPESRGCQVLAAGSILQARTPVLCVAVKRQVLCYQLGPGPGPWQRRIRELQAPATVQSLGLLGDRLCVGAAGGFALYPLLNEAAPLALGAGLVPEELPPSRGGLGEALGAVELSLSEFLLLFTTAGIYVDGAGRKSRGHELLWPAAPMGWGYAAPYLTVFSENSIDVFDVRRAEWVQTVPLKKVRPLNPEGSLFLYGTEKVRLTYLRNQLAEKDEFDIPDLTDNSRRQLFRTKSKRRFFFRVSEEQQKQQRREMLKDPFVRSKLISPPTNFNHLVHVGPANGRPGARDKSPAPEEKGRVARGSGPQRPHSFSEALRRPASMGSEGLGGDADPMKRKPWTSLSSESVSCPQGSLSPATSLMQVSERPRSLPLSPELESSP
smiles,measurement,setting,value
O=C(Nc1cccc([C@@H]2CN(c3ncnc4[nH]ccc34)CCN2CCO)c1)Nc1c(F)cccc1N1CCCC1,inhibition,[1],81%
same,inhibition,[2],64%
same,inhibition,[3],95%
same,inhibition,[4],100%
same,inhibition,[5],100%
same,inhibition,[6],96%
same,inhibition,[7],79%
same,inhibition,[8],100%
same,inhibition,[9],81%
same,inhibition,[10],92%
same,inhibition,[11],100%
same,inhibition,[12],6.3%
same,inhibition,[13],11%
same,inhibition,[14],73%
same,inhibition,[15],100%
same,inhibition,[16],100%
same,inhibition,[17],100%
same,inhibition,[18],87%
O=C(Nc1cccc([C@H]2CCCN(c3ncnc4[nH]ccc34)C2)c1)Nc1ccccc1N1CCCC1,inhibition,[19],89%
same,inhibition,[20],96%
same,inhibition,[21],85%
same,inhibition,[22],78%
same,inhibition,[23],63%
same,inhibition,[24],70%
same,inhibition,[25],98%
same,inhibition,[26],61%

# Reference: ChEMBL document CHEMBL4387741, “Optimization of novel reversible Bruton's tyrosine kinase inhibitors identified using Tethering-fragment-based screens” (Bioorg Med Chem, 2019)
